These results are taken from PubChem BioAssay (NCI).

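In this assay, cells in 96-well plates receive the compound at five concentrations for 48 hours. Endpoints are linearly interpolated between the surrounding concentrations. GI50 is the concentration that inhibits growth by half. TGI is the concentration that stops growth completely.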 Where only a bound is given, the exact number is not on record here.

The first experiment has as its system SN12C renal. In words: NCI anticancer screen, dose series, 48 h.
Compound `O=[N+]([O-])/C(Cl)=C(\NCCN/C(C(Cl)=C(Cl)Cl)=C(/Cl)[N+](=O)[O-])C(Cl)=C(Cl)Cl` displayed a TGI of more than 100 µM.

Consider `S=C1NC2=C(CSC/C2=C\c2ccccc2)C(c2ccccc2)N1` (stereo not drawn), for which the TGI is more than 100 µM.

In the case of `CCN1C(=O)C(=C/C=C/c2ccc(N(CC)CC)cc2)C(=O)N(CC)C1=S`, the TGI was more than 100 µM.

`CSc1nc2c(ncn2C2OC(CO)C(O)C(O)C2O)c(=O)[nH]1` (stereo not drawn) displayed a TGI of more than 100 µM.

As to `Nc1ccccc1C(=O)C(Br)C(Br)c1ccc2c(c1)OCO2` (stereo not drawn), the TGI stood at 72.5 µM.

Turning to `C/C(=C\CO)CC/C=C(\C)CNc1ccc([N+](=O)[O-])cc1`, the TGI is more than 100 µM.

Turning to `CCCCCCCCCCCC1CC(=O)NCCCN(C)CCCCN(C)CCCN1C` (stereo not drawn), the TGI is 3.14 µM.

Consider `CCN(CCCl)c1cc(CN(C)C)cc(NC(=O)c2ccc(C(=O)Nc3cccc(CN(C)C)c3)cc2)c1`, for which the TGI was 10.6 µM.

Another experiment has as its system SNB-75 CNS. As to the kind of experiment: NCI anticancer screen, dose series, 48 h.
In turn, `CCOP(=O)(OCC)OC1CC(n2cc(C)c(=O)n(C)c2=O)OC1CO[Si](C)(C)C(C)(C)C` (stereo not drawn) had a TGI of more than 100 µM.

As for `N#C/C(=C1\SC(N=Nc2ccc(Cl)cc2)C(=O)N1c1ccccc1)c1nc2ccccc2[nH]1` (stereo not drawn), the TGI turned out to be 65.5 µM.

Regarding `O=C(NN1C(=O)CSC1c1cccc(F)c1)c1ccncc1` (stereo not drawn), the TGI is more than 100 µM.

The compound `CC(C)C(N)C(=O)NC(CCC(=O)NCCCCC(N)C(=O)NCCCNc1ccc([N+](=O)[O-])c2[nH]c3ccccc3c(=O)c12)C(N)=O` (stereo not drawn) came in with a TGI of more than 100 µM.

Turning to `Cc1cccc(/C(Br)=C2/OC(=O)c3ccccc32)c1`, the TGI is more than 100 µM.

With `CC#CC(O)(C(=O)OC1CC(C)N(C)C(C)(C)C1)C1CCCC1` (stereo not drawn), the TGI was more than 100 µM.

Compound `Nc1ccc(-c2nn3c(COc4ccc(Cl)cc4)nnc3s2)cc1` had a TGI of more than 100 µM.

In turn, `C(=C\c1ccccc1)/COc1ccccc1C(N1CCOCC1)n1nc2ccccc2n1` (stereo not drawn) showed a TGI of 16.9 µM.

In turn, `c1ccc2[nH]c(CNc3ccc(C4C[Se]N=N4)cc3)nc2c1` (stereo not drawn) had a TGI of more than 100 µM.

In turn, `COc1cc(/C=C2\CCC(C)/C(=C\c3cc(OC)c(OC)c(OC)c3)C2=O)cc(OC)c1OC` (stereo not drawn) gave a TGI of 50.8 µM.

The compound `COC(=O)[C@H](Cc1ccccc1)NC(=O)N(CCC#N)CCN(C(=O)N[C@@H](Cc1ccccc1)C(=O)OC)c1ccccc1` returned a TGI of 45.3 µM.

Compound `O=S1(=O)c2cnccc2NC(=NCc2ccccc2)N1c1ccccc1` had a TGI of more than 100 µM.

For the compound `Cc1ccc2oc(=O)c(-c3ccccc3)nc2c1`, the TGI was more than 100 µM.

The compound `O=C(O)/C=C\C(=O)Nc1ccc(S(=O)(=O)c2ccc(NC(=O)/C=C\C(=O)O)cc2)cc1` yielded a TGI of more than 100 µM.

On to `COc1ccc(-n2nc(C)c3c(Nc4ccc(NC(=O)Nc5ccc(Cl)c(C(F)(F)F)c5)cc4)ncnc32)cc1`, for which the GI50 is 0.553 µM and the TGI was 4.55 µM.

In the case of `O=[N+]([O-])/C(Cl)=C(\NCCN/C(C(Cl)=C(Cl)Cl)=C(/Cl)[N+](=O)[O-])C(Cl)=C(Cl)Cl`, the TGI is more than 100 µM.

Compound `COc1ccc(/C=N/n2c(C)nc3c(sc(=S)n3-c3ccccc3)c2=O)cc1` yielded a TGI of 41.4 µM.

With `CSc1nc2c(ncn2C2OC(CO)C(O)C(O)C2O)c(=O)[nH]1` (stereo not drawn), the TGI was more than 100 µM.

Turning to `Nc1ccccc1C(=O)C(Br)C(Br)c1ccc2c(c1)OCO2` (stereo not drawn), the TGI stood at 60.9 µM.

With `C/C(=C\CO)CC/C=C(\C)CNc1ccc([N+](=O)[O-])cc1`, the TGI is more than 100 µM.

`CCCCCCCCCCCC1CC(=O)NCCCN(C)CCCCN(C)CCCN1C` (stereo not drawn) yielded a TGI of 2.99 µM.

For `CCN(CCCl)c1cc(CN(C)C)cc(NC(=O)c2ccc(C(=O)Nc3cccc(CN(C)C)c3)cc2)c1`, the TGI was 3.18 µM.

A further experiment concerns SW-620 colon. As to the kind of experiment: NCI anticancer screen, dose series, 48 h.
In turn, `CCOP(=O)(OCC)OC1CC(n2cc(C)c(=O)n(C)c2=O)OC1CO[Si](C)(C)C(C)(C)C` (stereo not drawn) gave a TGI of more than 100 µM.

Take `N#C/C(=C1\SC(N=Nc2ccc(Cl)cc2)C(=O)N1c1ccccc1)c1nc2ccccc2[nH]1` (stereo not drawn): the TGI is more than 100 µM.

With `O=C(NN1C(=O)CSC1c1cccc(F)c1)c1ccncc1` (stereo not drawn), the TGI was more than 100 µM.

In the case of `COc1cccc2c1OCC1Cc3ccccc3OC21` (stereo not drawn), the TGI is more than 100 µM.

Consider `CC(C)C(N)C(=O)NC(CCC(=O)NCCCCC(N)C(=O)NCCCNc1ccc([N+](=O)[O-])c2[nH]c3ccccc3c(=O)c12)C(N)=O` (stereo not drawn), for which the TGI is more than 100 µM.

`Cc1cccc(/C(Br)=C2/OC(=O)c3ccccc32)c1`: the TGI is more than 100 µM.

The compound `CC#CC(O)(C(=O)OC1CC(C)N(C)C(C)(C)C1)C1CCCC1` (stereo not drawn) had a TGI of more than 100 µM.

As for `Nc1ccc(-c2nn3c(COc4ccc(Cl)cc4)nnc3s2)cc1`, the TGI was more than 100 µM.

As to `C(=C\c1ccccc1)/COc1ccccc1C(N1CCOCC1)n1nc2ccccc2n1` (stereo not drawn), the TGI was 36.5 µM.

`c1ccc2[nH]c(CNc3ccc(C4C[Se]N=N4)cc3)nc2c1` (stereo not drawn) had a TGI of more than 100 µM.

Take `COc1cc(/C=C2\CCC(C)/C(=C\c3cc(OC)c(OC)c(OC)c3)C2=O)cc(OC)c1OC` (stereo not drawn): the TGI is more than 100 µM.

`COC(=O)[C@H](Cc1ccccc1)NC(=O)N(CCC#N)CCN(C(=O)N[C@@H](Cc1ccccc1)C(=O)OC)c1ccccc1` displayed a TGI of more than 100 µM.

`C[C@H]1OC(=O)[C@@H]2N=NN(Cc3ccccc3)[C@H]12` registered a TGI of more than 100 µM.

Compound `CN1N=C(c2ccncc2)OC1c1ccccc1F` (stereo not drawn) gave a TGI of more than 100 µM.

As to `O=C(/C=C/c1ccc2c(c1)OCO2)Cc1nc2ccccc2[nH]c1=O`, the TGI was more than 100 µM.

As for `O=S1(=O)c2cnccc2NC(=NCc2ccccc2)N1c1ccccc1`, the TGI was more than 100 µM.

In the case of `Cc1ccc2oc(=O)c(-c3ccccc3)nc2c1`, the TGI is more than 100 µM.

`O=C(O)/C=C\C(=O)Nc1ccc(S(=O)(=O)c2ccc(NC(=O)/C=C\C(=O)O)cc2)cc1` showed a TGI of more than 100 µM.

Take `COc1ccc(-n2nc(C)c3c(Nc4ccc(NC(=O)Nc5ccc(Cl)c(C(F)(F)F)c5)cc4)ncnc32)cc1`: the GI50 was 1.9 µM and the TGI stood at 4.35 µM.

Consider `O=[N+]([O-])/C(Cl)=C(\NCCN/C(C(Cl)=C(Cl)Cl)=C(/Cl)[N+](=O)[O-])C(Cl)=C(Cl)Cl`, for which the TGI is more than 100 µM.

Compound `S=C1NC2=C(CSC/C2=C\c2ccccc2)C(c2ccccc2)N1` (stereo not drawn) displayed a TGI of more than 100 µM.

Take `COc1ccc(/C=N/n2c(C)nc3c(sc(=S)n3-c3ccccc3)c2=O)cc1`: the TGI was more than 100 µM.

Turning to `CCN1C(=O)C(=C/C=C/c2ccc(N(CC)CC)cc2)C(=O)N(CC)C1=S`, the TGI is more than 100 µM.

`CSc1nc2c(ncn2C2OC(CO)C(O)C(O)C2O)c(=O)[nH]1` (stereo not drawn): the TGI was more than 100 µM.

Compound `Nc1ccccc1C(=O)C(Br)C(Br)c1ccc2c(c1)OCO2` (stereo not drawn) showed a TGI of more than 100 µM.

Compound `C/C(=C\CO)CC/C=C(\C)CNc1ccc([N+](=O)[O-])cc1` showed a TGI of more than 100 µM.

`CCCCCCCCCCCC1CC(=O)NCCCN(C)CCCCN(C)CCCN1C` (stereo not drawn) had a TGI of 2.35 µM.

As for `CC(=O)Oc1c(C)c(C)c2c(c1C)CCC(C)(CC(=O)OCCCCCCCCCCC[P+](c1ccccc1)(c1ccccc1)c1ccccc1)O2` (stereo not drawn), the GI50 is 0.315 µM and the TGI was 1.33 µM.

Compound `COc1cc(C2c3cc4c(cc3[C@@H](Nc3ccc5c(c3)OCO5)C3COC(=O)[C@H]23)OCO4)cc(OC)c1O` (stereo partly drawn) yielded a TGI of more than 37.6 µM.

Turning to `CCN(CCCl)c1cc(CN(C)C)cc(NC(=O)c2ccc(C(=O)Nc3cccc(CN(C)C)c3)cc2)c1`, the TGI came to 0.75 µM.
